Two compounds from patent US20260109712A1, “RIFAMYCINS FOR NONTUBERCULOUS MYCOBACTERIA” (priority 2022, published 2026) can be followed below.

Series [1] can be described thus: Mouse pharmacokinetics studies. The series is classed as in vivo, CD-1 mice. The procedure, abridged:
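Plasma from K2EDTA-collected blood analysed by LC-MS/MS with multiple-reaction monitoring in electrospray positive mode. Parameters derived by non-compartmental analysis.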

The subject of series [2] is M. abscessus subsp. abscessus K21. Briefly: MIC assay, clinical isolate K21. The series is classed as cell-based, Mycobacterium abscessus. Conditions: 90% inhibition of bacterial growth.
Another series relates to THP-1. In words: Fold-killing in THP-1. The class given is cell-based. Conditions: expressed in log-10 scale.
The subject of a further series is CYP3A4. Conditions: human.
The next series has as its system Mycobacterium abscessus. Briefly: MIC against Mycobacterium abscessus (strain not given). The class given is cell-based.
[3] abbreviates: female, CD-1, mouse, in vivo, 10 mg/kg.
Where [4] appears, read: female, CD-1, mouse, in vivo, iv, 10 mg/kg.

Values after ≈ are worked out from the molar mass of the structure shown. Where two headings read alike, the source gives them in different places.

Protocol for CYP3A4: The threshold cycle (CT) was measured for each isoform cDNA by real time qRT-PCR. The mRNA level of each isoform was assessed by the relative quantifiation with reference gene (GAPDH) as the normalizer method. The normalized fold induction was calculated by 2^−ΔΔCT method, in which 0.1% DMSO was used as the reference (vehicle control). The induction potential of each test compound was analyzed by comparing its fold induction to a pre-determined cutoff value for each lot of hepatocytes. The hepatocytes lots used in this study were validated using 10 known inducers and 5 known non-inducers for each isozyme. A cutoff value is determined based on the validation study for each hepatocytes lot.

Regarding `CO[C@H]1/C=C/O[C@@]2(C)Oc3c(C)c(O)c4c(c3C2=O)C2=NC3(CCN(CC(C)C)CC3)NC2=C(NC(=O)/C(C)=C/C=C/[C@H](C)[C@H](O)[C@@H](C)[C@@H](O)[C@@H](C)[C@H](OC(=O)c2cccnc2)[C@@H]1C)C4=O` [5m, 25-O-(3-pyridinecarbonyl)-25-O-desacetyrifabutin], in series [1] (mouse, in vivo, 10 mg/kg), the CL was found to be 3.0 mL/min/kg and the Vd is 1.6 L/kg. Moreover, the “fAUC/MIC, times higher than rifabutin” value in series [1] (mouse, in vivo, po, 10 mg/kg) is 128. In addition, the “Mab K21 MIC” value in series [2] came to 0.033 µM.
In the case of `CO[C@H]1/C=C/O[C@@]2(C)Oc3c(C)c(O)c4c(c3C2=O)C2=NC3(CCN(CC(C)C)CC3)NC2=C(NC(=O)/C(C)=C\C=C\[C@H](C)[C@H](O)[C@@H](C)[C@@H](O)[C@@H](C)[C@H](OC(C)=O)[C@@H]1C)C4=O` [rifabutin, reference compound], the ƒAUC/MIC in series [1] (Table 18) and in series [1] (Table 20) was 0.22 in each case. In addition, the “25-O-desacetyl rifabutin 6 detected in mouse plasma” value in series [1] (female, CD-1, mouse, in vivo) was determined as 0.4%. The compound also returned a F in series [1] (female, CD-1, mouse, in vivo) of 70%. Moreover, the volume of distribution (Vd) in series [1] (female, CD-1, mouse, in vivo) is 3.5 L/kg; in series [1] (setting [3]) it was 3.51 L/kg; in series [1] (setting [4]) it was 3.51 L/kg. Besides, the clearance in series [1] (female, CD-1, mouse, in vivo) amounted to 10.3 mL/min/kg; in series [1] (setting [3]) it was 10.3 mL/min/kg; in series [1] (setting [4]), 10.3 mL/min/kg. This compound also yielded a C-25 deacylation i.v. in series [1] (female, CD-1, mouse, in vivo, iv) of 0.4%. Also, in series [1] (female, CD-1, mouse, in vivo, po), the C-25 deacylation p.o. worked out at 0.4%. This compound came in with an AUC in series [1] (female, CD-1, mouse, in vivo, po, 10 mg/kg) of 11500 ng·h/mL. The compound also had a half-life in series [1] (female, mouse, in vivo, CD-1 mice, 10 mg/kg) of 4 h. Besides, the fAUC/MIC in series [1] (p.o. doses of 10 mg/kg) came to 0.22. In addition, in the series with THP-1, the “Fold-killing in THP-1” value is 2.3. Moreover, the “CYP3A4 gene fold-induction at 10 μM” value in the series on CYP3A4 is listed as 40.0. Besides, the MIC in the series on Mycobacterium abscessus (Mycobacteroides abscessus, 72 h, Table 22, read-out: MICMab) amounted to 1.15 µM (≈ 0.974 µg/mL); in the series on Mycobacterium abscessus (Mycobacteroides abscessus, Table 13, read-out: Mab MIC), 1.1 µM (≈ 0.932 µg/mL); with Mycobacterium abscessus (Mycobacteroides abscessus, against Mycobacterium abscessus, Table 19, read-out: MIC), 1.1 µM (≈ 0.932 µg/mL); in the series on Mycobacterium abscessus (against Mycobacterium abscessus, Table 20, read-out: MIC), 1.1 µM (≈ 0.932 µg/mL).

As a reminder, the Vd is a proportionality between amount in the body and measured concentration, not a real space. Lower therefore signals little distribution into tissue. The term clearance denotes the rate of elimination divided by the concentration. As usually defined, the AUC is the area under the concentration-time curve, a measure of exposure. The term half-life denotes how long it takes for the measured level to halve. Higher therefore signals slow decline.
